Test results as given in patent US20130096185A1, “INACTIVATION OF miR-34a BY ABERRANT CpG METHYLATION IN CANCER” (priority 2008, published 2013).

Test system: miR-34a promoter
Experiment: Bisulfite sequencing of miR-34a promoter CpG methylation after 5Aza-2′dC treatment
Type: cell-based, human
Conditions: LAPC-4 cells
Excerpt: (a) Pattern of CpG methylation in the miR-34a promoter region in prostate epithelial cells and derived cancer cell lines. The depicted region corresponds to 2.5 kbp upstream of the transcriptional start site (TSS, position indicated by arrow). Vertical bars represent CpG-dinucleotides. The position of the p53 binding site is indicated. The horizontal bars indicate amplified PCR products which were sub-cloned and analyzed by sequencing (gray: distal fragment, black: proximal fragment). The combined results obtained by sequencing of 8 independent subclones are shown for each cell line. Black areas represent the degree of cytosine methylation at the respective CpG position. The white shaded areas indicate methylation after treatment of LAPC-4 cells with 5Aza-2′dC. The open rectangles correspond to the regions covered by the MSP primers. IVM DNA was used as positive control for amplification of the M product. BPH1: benign prostate hyperplasia cells immortalized with SV40 large T antigen. IVM: in vitro methylated DNA.
Reversion of genomic methylation. Cells were grown in the presence of 1 μM 5-aza-2′deoxycytidine (5Aza-2′dC, Sigma) for 72 hours and 300 nM trichostatin A (TSA, Sigma) for the last 24 hours. […]
Bisulfite sequencing. […] For each cell line at least 8 individual clones were sequenced on both strands using M13 primers and BigDye terminator, and analyzed on a 3700 capillary sequencer (Applera).

Which “level of CpG methylation of miR-34a” value does the source give for `Nc1ncn([C@H]2C[C@H](O)[C@@H](CO)O2)c(=O)n1` [5Aza-2′dC, 5-aza-2′deoxycytidine] here?
The value was “reduction in the level of CpG methylation”.
